Reference: patent US6319898A, “Method for inhibiting eukaryotic protein kinases” (Terragen Diversity, Inc., priority 1998, dated 2001)
Residues, ends and D or L forms follow the SMILES beside them.

What was measured:
E. coli = assay: Growth inhibition of E. coli; type: cell-based; settings: surfactin in these concentrations (1 to 10 ug on the disc)
Excerpt: (§1) Eventually the inhibition is overcome and the culture sporulates.

[1] = test system: Protein Kinase C purified from rat brain; assay: Protein Kinase C colorimetric assay (Pierce), absorbance at 570 nm; type: biochemical; settings: for absorbance read at 570 nm: 10 ng PKC + 10 ug, 30 min at 30° C, control reaction 0.228 (srf), 0.203 (polymyxin B)
Protocol: Protein Kinase C purified from rat brain was obtained from Upstate Biotechnology. The activity of the enzyme was assayed in a colorimetric assay developed by Pierce. Reaction mixtures were prepared to contain 5 ul each of the 5×reaction buffer, the dye labeled glycogen synthase synthetic peptide substrate reconstituted to 1.77 mM and the 5× activator solution of phosphatidyl-L-serine, all supplied by Pierce in a PKC assay kit. The activator solution was sonicated for 30 sec. on ice prior to use. 1 ul of the kinase (equivalent to 10 ng of enzyme with a specific activity of 12.1 units/mg) was added to 10 ul of a solution containing the compound to be tested for inhibitory activity and allowed to stand at room temperature for 10 minutes then transferred to the reaction tube containing the substrate and incubated 30 min. at 30° C. After incubation 20 ul of each sample was applied to the centre of the affinity membrane in the separation units supplied with the assay kit. These membranes specifically bind the phosphorylated dye labeled substrate while non-phosphorylated peptide will pass through when spun at low speeds. After washing the membranes the phosphorylated peptide was eluted by spinning with the elution buffer and absorbance read at 570 nm in a Molecular Devices V-max plate reader.

Streptomyces 85E = assay: Inhibition of sporulation of Streptomyces 85E, filter paper disc on seeded plate; type: cell-based, Streptomyces WEC478-85E; settings: surfactin in these concentrations (1 to 10 ug on the disc)
Protocol: In the test assay, material to be tested was applied to a filter paper disk and then placed on a plate which has been freshly seeded with the strain […] test organism. The test organism is then allowed to grow in the presence of the filter paper disk for a period of 24 to 36 hours, after which the organism is evaluated for altered development in the zone around the disk. An observation of an inhibition of the formation of aerial mycelia and spores, without inhibition of the growth of vegetative mycelia is particularly indicative of the presence of an inhibitor of post-translational phosphorylation. Samples of surfactin prepared as described from Bacillus 60A as well as surfactin from Bacillus subtilis with the same molecular weight (1036) obtained from Sigma were tested for their ability to inhibit sporulation of Streptomyces […].

Human c-Src (p60^c-src) = biological target: T1, Human c-Src (p60^c-src) (Homo sapiens, UniProt P12931); assay: c-Src tyrosine kinase ELISA based assay (Pierce), absorbance at 450 nm; type: biochemical
T1 construct: purchased Upstate Biotechnology
T1 sequence (P12931 whole entry): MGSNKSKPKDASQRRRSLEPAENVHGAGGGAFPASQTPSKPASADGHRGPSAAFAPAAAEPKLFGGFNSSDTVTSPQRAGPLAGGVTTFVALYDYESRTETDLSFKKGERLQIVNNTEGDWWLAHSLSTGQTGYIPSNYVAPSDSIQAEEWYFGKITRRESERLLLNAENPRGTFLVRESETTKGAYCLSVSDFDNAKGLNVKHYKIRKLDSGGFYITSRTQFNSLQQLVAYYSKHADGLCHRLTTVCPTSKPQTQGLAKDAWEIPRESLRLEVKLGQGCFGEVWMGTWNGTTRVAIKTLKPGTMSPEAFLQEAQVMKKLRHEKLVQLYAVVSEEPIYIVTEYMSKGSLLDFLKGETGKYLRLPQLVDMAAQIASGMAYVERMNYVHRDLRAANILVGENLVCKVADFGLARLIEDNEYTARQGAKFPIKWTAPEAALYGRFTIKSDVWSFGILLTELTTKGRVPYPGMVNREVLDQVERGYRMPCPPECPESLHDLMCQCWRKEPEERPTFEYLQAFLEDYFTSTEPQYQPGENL
Protocol: Human c-Src (p60^c-src) was obtained from Upstate Biotechnology. The activity of the enzyme was assayed in an ELISA based assay developed by Pierce. Following their protocol, 500 ng of a biotinylated peptide substrate in distilled water (Pierce biotinylated peptide substrate #2, sequence Biotin-EGPWLEEEEEAYGWMDF) (SEQ ID NO:2) was added to a NeutrAvidin™ coated well, incubated at 37° C. for 30 minutes to allow binding to the well then washed with Tris-buffered saline (TBS, 25 mM Tris, 0.15 M NaCl, pH 7.6). For each reaction, a reaction buffer mixture was prepared to contain 10 ul of src assay buffer (100 mM Tris-HCl, pH 7.2, 25 mM MnCl2, 2.0 mM EGTA, 0.25 mM Na3 VO4, 125 mM Mg Acetate) 20 ul of ATP/MgCl2 buffer (5 mM ATP, 50 MM MgCl2 in TBS) and 1 ul of protease inhibitor mix (PMSF and pepstatin, final concentrations in Rx: 0.5 mM and 1.5 uM). The src enzyme is supplied at a concentration of 3 units per microliter and dilutions of the kinase were prepared in 1% bovine serum albumin (BSA) in TBS typically to final concentrations of 0.2 or 0.4 units in 10 ul. 10 ul of a solution of a compound to be tested for inhibitory activity was added to the reaction buffer mixture and allowed to stand 10-15 min. at room temperature, then 10 ul of the diluted kinase enzyme was added and the mixture was allowed to stand 10 min. at room temperature before addition to the substrate coated well. The plate was incubated at 30° C. for varying periods of time then the contents were washed out with repeated rinsings with TBS. A mouse monoclonal anti-phosphotyrosine antibody (PY20) conjugated to horseradish peroxidase (Pierce) was diluted 1:2000 in 1% BSA diluent from 1 mg/ml and 75 ul of this dilution was added to each well, incubated 1 hour at 37° C. then washed out with repeated rinsings with TBS.
100 ul of horseradish peroxidase substrate solution (3,3',5,5' tetramethylbenzidine and H2 O2, Pierce TMB-ELISA) was added to each well and after 10 min. the reaction was stopped with the addition of 100 ul of 1 N H2 SO4. Absorbance was read at 450 nm in a Molecular Devices V-max plate reader.
Examples of inhibition detected using this assay: (Values reported are the absorbance readings after subtraction of a blank well containing no enzyme.)

S. aureus = assay: Growth inhibition of S. aureus; type: cell-based; settings: surfactin in these concentrations (1 to 10 ug on the disc)
Excerpt: as §1

Compound	inhibition of growth of E. coli (E. coli)	absorbance read at 570 nm [1]	inhibition of Protein Kinase C ([1]; 380 uM in the reaction)	inhibition of growth of the vegetative mycelia (Streptomyces 85E)	persistence of the inhibition of aerial mycelia and spore formation after unaffected portions of the culture have sporulated (Streptomyces 85E)	inhibition of the activity of the tyrosine kinase (Human c-Src (p60^c-src); 100 uM in the reaction)	inhibition of the activity of the tyrosine kinase (Human c-Src (p60^c-src); 200 uM in the reaction (10 ug))	absorbance reading after subtraction of a blank well containing no enzyme (Human c-Src (p60^c-src); 0.05 unit c-Src + 10 ug, 30 min at 30° C, control reaction 0.315)	absorbance reading after subtraction of a blank well containing no enzyme (Human c-Src (p60^c-src); 0.1 unit c-Src + 10 ug, 30 min at 30° C, control reaction 0.391)	absorbance reading after subtraction of a blank well containing no enzyme (Human c-Src (p60^c-src); 0.2 unit c-Src + 5 ug, 5 min at 30° C, control 0.220)	absorbance reading after subtraction of a blank well containing no enzyme (Human c-Src (p60^c-src); 0.2 unit c-Src + 10 ug, 5 min at 30° C, control 0.220)	absorbance reading after subtraction of a blank well containing no enzyme (Human c-Src (p60^c-src); 0.2 unit c-Src + 10 ug, 30 min at 30° C, control reaction 0.396)	absorbance reading after subtraction of a blank well containing no enzyme (Human c-Src (p60^c-src); 0.4 unit c-Src + 10 ug, 30 min at 30° C, control reaction 0.517)	potency against the tyrosine kinase c-Src compared with the serine-threonine kinase PKC (Human c-Src (p60^c-src); conclusion from the c-Src and PKC assays)	inhibition of growth of S. aureus (S. aureus)
CC(C)CCCCCCCCC[C@@H]1CC(=O)N[C@@H](CCC(=O)O)C(=O)N[C@@H](CC(C)C)C(=O)N[C@H](CC(C)C)C(=O)N[C@@H](C(C)C)C(=O)N[C@@H](CC(=O)O)C(=O)N[C@H](CC(C)C)C(=O)N[C@@H](CC(C)C)C(=O)O1 [surfactin] (HELM PEPTIDE1{E.L.[dL].V.D.[dL].L}|CHEM1{[CC(C)CCCCCCCCC[C@H](CC(=O)[*:1])O[*:2]]}$PEPTIDE1,CHEM1,1:R1-1:R1|PEPTIDE1,CHEM1,7:R2-1:R2$$$V2.0)	does not inhibit growth	0.181	only minimally inhibitory	does not inhibit growth of the vegetative mycelia	3 to 4 days	has inhibited the activity of the tyrosine kinase tested	has inhibited the activity of the tyrosine kinase tested	0.050	0.093	0.185	0.087	0.191	0.311	more potent inhibitors of the tyrosine kinase tested than this serine-threonine kinase	does not inhibit growth
Polymyxin B [reference compound]	–	0.035	–	–	–	–	–	–	–	–	–	–	–	–	–
